Drawing on patent US10301267B2, “Compounds” (AstraZeneca AB, priority 2006, dated 2019), this text covers IC50 for 27 compounds.

Molecules are shown by their SMILES.

This assay deals with FGFR1 active kinase (Homo sapiens, UniProt P11362). The experiment in a line: FGFR Kinase assay - Caliper Echo Dosing. As to conditions: FGFR1 7.2 nM, 408 uM ATP, acoustic dosing; geometric mean of n. Type of assay: biochemical. The method, then: FGFR Kinase Assay—Caliper Echo Dosing
Sequence of FGFR1 active kinase (P11362 22-822): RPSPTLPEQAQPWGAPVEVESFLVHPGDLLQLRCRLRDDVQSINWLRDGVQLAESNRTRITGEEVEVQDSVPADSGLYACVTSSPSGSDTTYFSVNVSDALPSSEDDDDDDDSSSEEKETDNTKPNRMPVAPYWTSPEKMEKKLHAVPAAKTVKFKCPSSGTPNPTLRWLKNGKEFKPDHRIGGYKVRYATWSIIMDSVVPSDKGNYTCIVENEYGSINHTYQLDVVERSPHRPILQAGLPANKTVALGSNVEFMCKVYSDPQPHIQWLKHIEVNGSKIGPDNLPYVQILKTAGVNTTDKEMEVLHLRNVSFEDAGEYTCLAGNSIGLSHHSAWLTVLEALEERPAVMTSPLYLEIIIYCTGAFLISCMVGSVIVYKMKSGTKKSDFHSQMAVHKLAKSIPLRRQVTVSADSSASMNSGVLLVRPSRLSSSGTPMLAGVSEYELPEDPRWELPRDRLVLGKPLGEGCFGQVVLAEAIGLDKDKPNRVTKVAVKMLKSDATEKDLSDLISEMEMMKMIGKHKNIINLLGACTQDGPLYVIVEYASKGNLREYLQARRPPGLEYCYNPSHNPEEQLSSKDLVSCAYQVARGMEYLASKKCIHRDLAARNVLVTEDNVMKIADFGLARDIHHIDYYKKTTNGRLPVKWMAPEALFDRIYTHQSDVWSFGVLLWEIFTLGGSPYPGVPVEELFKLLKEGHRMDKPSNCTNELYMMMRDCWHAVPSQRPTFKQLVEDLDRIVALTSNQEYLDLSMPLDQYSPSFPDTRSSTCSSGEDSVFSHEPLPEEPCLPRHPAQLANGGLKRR
To determine inhibition of FGFR activity, kinase assays were conducted using Caliper technology.
Kinase activity assays were performed in Greiner 384-well low volume plates, with a total reaction volume of 12 ul per well. Final concentration of FGFR1 active kinase in each reaction well was 7.2 nM. The substrate for each assay was a custom peptide with fluorescent tag (13 amino acids in length, […] with the fluorescene tag on the first K).
Compounds were dispensed directly in to assay plates using a Labcyte Echo 550 acoustic droplet ejection unit. Each well received 120 nl of DMSO containing compound such that the final concentration of compound in the assay prior to the addition of the stop solution ranged between 30 uM and 30 pM. In addition to compounds each plate carried maximum and minimum control wells, the max wells contained 120 nl of DMSO and the min wells contained 120 nl of 10 mM staurosporine (LC Laboratories, MA 01801, USA Catalogue No. S-9300). The Enzyme (at 7.2 nM [final]) and Substrate (at 3.6 uM [final]) were added separately to the compound plates, in reaction buffer [comprising: 50 mM MOPS (Sigma, Catalogue No. M1254)—pH 6.5, 0.004% Triton (Sigma, Catalogue No. X-100), 2.4 mM DTT, 12 mM MgCl2, 408 uM ATP] resulting in a final DMSO concentration in the reaction mix of 1%.
Assay plates were incubated at room temperature for 1.5 h, before the reaction was stopped with the addition of buffer [comprising: 100 mM HEPES—pH7.5, 0.033% Brij-35 (Sigma Catalogue No. B4184), 0.22% Caliper Coating Reagent #3 (Caliper Life Sciences Catalogue No. 760050), 88 mM EDTA, 5% DMSO]. Stopped assay plates were then read using the Caliper LabChip® LC3000 (which uses microfludics to measure a shift in mobility between fluorescent labelled peptide and the FGFR1 kinase—phosphorylated form of this peptide).
In the assay, compounds were tested at a range of concentrations. […] Percentage inhibition at 1 uM, as expressed herein, is a calculated value based on the curve fit that was generated experimentally. From the fitted curve plot, the effect of compound at a concentration of 1 uM was calculated as a percentage inhibition. The IC50 is the concentration of compound, which inhibits FGFR1 kinase activity by 50% in the context of this assay. This value is calculated using a standard curve fitting software package Origin™.
In general, IC50 refers to the point on the concentration scale where inhibition reaches its midpoint. A high value points to weaker potency. Regarding `COc1cc(CCc2cc(NC(=O)c3ccc(N4CCN(C(C)CO)CC4)cc3)[nH]n2)cc(OC)c1` (stereo not drawn) [Example 137, N-[5-[2-(3,5-dimethoxyphenyl)ethyl]-2H-pyrazol-3-yl]-4-[4-(1-hydroxypropan-2-yl)piperazin-1-yl]benzamide], inhibition was half-maximal at 0.57 nM (IC50).
In the case of `CNC(=O)c1cccc(CCc2cc(NC(=O)c3ccc(N4CCN(C)CC4)cc3)[nH]n2)c1` [Example 178, N-[5-[2-[3-(methylcarbamoyl)phenyl]ethyl]-2H-pyrazol-3-yl]-4-(4-methylpiperazin-1-yl)benzamide] it was 1.1 nM; in that of `COc1cc(CCc2cc(NC(=O)c3ccc(N4CCCN(C)CC4)cc3)[nH]n2)cc(OC)c1` [Example 156, N-[5-[2-(3,5-dimethoxyphenyl)ethyl]-2H-pyrazol-3-yl]-4-(4-methyl-1,4-diazepan-1-yl)benzamide], 0.81 nM.
Turning to `C#CCN1CCC(c2ccc(C(=O)Nc3cc(CCc4cc(OC)cc(OC)c4)n[nH]3)cc2)CC1` [Example 146, N-[5-[2-(3,5-dimethoxyphenyl)ethyl]-2H-pyrazol-3-yl]-4-(1-prop-2-ynylpiperidin-4-yl)benzamide], the IC50 is 1.1 nM.
In the case of `COc1cc(CCc2cc(NC(=O)c3cnc(N4CCN(C)C(C)C4)cn3)[nH]n2)cc(OC)c1` (stereo not drawn) [Example 123, N-[5-[2-(3,5-Dimethoxyphenyl)ethyl]-2H-pyrazol-3-yl]-5-(3,4-dimethylpiperazin-1-yl)pyrazine-2-carboxamide] it was 2.2 nM; in that of `COc1cc(CCc2cc(NC(=O)c3ccc(N4CCCN(C)CC4)s3)[nH]n2)cc(OC)c1` [Example 142, N-[5-[2-(3,5-dimethoxyphenyl)ethyl]-2H-pyrazol-3-yl]-5-(4-methyl-1,4-diazepan-1-yl)thiophene-2-carboxamide], 2.1 nM.
In the case of `CCN1CCN(c2ccc(C(=O)Nc3cc(CCc4cc(OC)cc(OC)c4)n[nH]3)cc2)CC1` [Example 180, N-[5-[2-(3,5-dimethoxyphenyl)ethyl]-2H-pyrazol-3-yl]-4-(4-ethylpiperazin-1-yl)benzamide] it was 1.7 nM; in that of `COc1cc(CCc2cc(NC(=O)c3cnc(N4CCCN(C)CC4)cn3)[nH]n2)cc(OC)c1` [Example 163, N-[5-[2-(3,5-dimethoxyphenyl)ethyl]-2H-pyrazol-3-yl]-5-(4-methyl-1,4-diazepan-1-yl)pyrazine-2-carboxamide], 1.8 nM.
In the case of `COc1cc(CCc2cc(NC(=O)c3cnc(N4CCCN(C(C)C)CC4)cn3)[nH]n2)cc(OC)c1` [Example 167, N-[5-[2-(3,5-dimethoxyphenyl)ethyl]-2H-pyrazol-3-yl]-5-(4-propan-2-yl-1,4-diazepan-1-yl)pyrazine-2-carboxamide] it was 0.63 nM; in that of `COc1cc(CCc2cc(NC(=O)c3ccc(I)cc3)[nH]n2)cc(OC)c1` [Example 82, N-[5-[2-(3,5-Dimethoxyphenyl)ethyl]-2H-pyrazol-3-yl]-4-iodo-benzamide], 21 nM; in that of `COc1cc(CCc2cc(NC(=O)c3ccc(CN(C)CC4CCCO4)cc3)n[nH]2)cc(OC)c1` (stereo not drawn) [Example 57, N-[5-[2-(3,5-Dimethoxyphenyl)ethyl]-1H-pyrazol-3-yl]-4-[(methyl-(oxolan-2-ylmethyl)amino)methyl]benzamide], 5.3 nM.
For `COc1cc(CCc2cc(NC(=O)c3cnc(N4CCN5CCCC5C4)cn3)[nH]n2)cc(OC)c1` (stereo not drawn) [Example 114, 5-(3,4,6,7,8,8a-hexahydro-1H-pyrrolo[2,1-c]pyrazin-2-yl)-N-[5-[2-(3,5-dimethoxyphenyl)ethyl]-2H-pyrazol-3-yl]pyrazine-2-carboxamide], the IC50 was 1.6 nM.
In the case of `COc1cc(CCc2cc(NC(=O)c3ccc(N4CCN(C(=O)OC(C)(C)C)CC4)s3)[nH]n2)cc(OC)c1` [Example 102, tert-Butyl 4-[5-[[5-[2-(3,5-dimethoxyphenyl)ethyl]-2H-pyrazol-3-yl]carbamoyl]thiophen-2-yl]piperazine-1-carboxylate] it was 28 nM; in that of `COc1cc(CCc2cc(NC(=O)c3cnc(N4CCCN(C)CC4)nc3)[nH]n2)cc(OC)c1` [Example 176, N-[5-[2-(3,5-dimethoxyphenyl)ethyl]-2H-pyrazol-3-yl]-2-(4-methyl-1,4-diazepan-1-yl)pyrimidine-5-carboxamide], 5.8 nM.
Regarding `CCN1CCC(c2ccc(C(=O)Nc3cc(CCc4cc(OC)cc(OC)c4)n[nH]3)cc2)CC1` [Example 159, N-[5-[2-(3,5-dimethoxyphenyl)ethyl]-2H-pyrazol-3-yl]-4-(1-ethylpiperidin-4-yl)benzamide], the IC50 stood at 0.97 nM. Compared with the last compound, the IC50 is about 6-fold lower.
The compound `COc1cc(CCc2cc(NC(=O)c3cnc(N4C[C@@H](C)N(C)[C@@H](C)C4)nc3)[nH]n2)cc(OC)c1` [Example 136, N-[5-[2-(3,5-dimethoxyphenyl)ethyl]-2H-pyrazol-3-yl]-2-[(3R,5S)-3,4,5-trimethylpiperazin-1-yl]pyrimidine-5-carboxamide] had an IC50 of 1.9 nM.
As to `COc1cc(CCc2cc(NC(=O)c3cnc(N4CCNC(C)(C)C4)cn3)[nH]n2)cc(OC)c1` [Example 108, N-[5-[2-(3,5-dimethoxyphenyl)ethyl]-2H-pyrazol-3-yl]-5-(3,3-dimethylpiperazin-1-yl)pyrazine-2-carboxamide], it took 2 nM to reach half-maximal inhibition (IC50). This IC50 and that of the compound before are within 1.5-fold of each other.
As to `CNC1CCN(c2cnc(C(=O)Nc3cc(CCc4cc(OC)cc(OC)c4)n[nH]3)cn2)C1` (stereo not drawn) [Example 161, N-[5-[2-(3,5-dimethoxyphenyl)ethyl]-2H-pyrazol-3-yl]-5-(3-methylaminopyrrolidin-1-yl)pyrazine-2-carboxamide], the IC50 was 3 nM.
As for `COc1cc(CCc2cc(NC(=O)c3cnc(C4CCN(C)CC4)nc3)[nH]n2)cc(OC)c1` [Example 162, N-[5-[2-(3,5-dimethoxyphenyl)ethyl]-2H-pyrazol-3-yl]-2-(1-methylpiperidin-4-yl)pyrimidine-5-carboxamide], the figure is 36 nM; as for `CCN1CCN(c2ccc(C(=O)Nc3cc(OCc4cc(OC)cc(OC)c4)n[nH]3)s2)CC1` [Example 141, N-[5-[(3,5-dimethoxyphenyl)methoxy]-2H-pyrazol-3-yl]-5-(4-ethylpiperazin-1-yl)thiophene-2-carboxamide], 0.86 nM; as for `COc1cc(CCc2cc(NC(=O)c3cnc(N4CCCN(C(C)C)CC4)nc3)[nH]n2)cc(OC)c1` [Example 173, N-[5-[2-(3,5-dimethoxyphenyl)ethyl]-2H-pyrazol-3-yl]-2-(4-propan-2-yl-1,4-diazepan-1-yl)pyrimidine-5-carboxamide], 18 nM.
The compound `COc1cc(CCc2cc(NC(=O)c3ccc(N4CCCN(C(C)C)CC4)s3)[nH]n2)cc(OC)c1` [Example 168, N-[5-[2-(3,5-dimethoxyphenyl)ethyl]-2H-pyrazol-3-yl]-5-(4-propan-2-yl-1,4-diazepan-1-yl)thiophene-2-carboxamide] displayed an IC50 of 1.5 nM.
As for `COc1cc(COc2cc(NC(=O)c3ccc(N4CCNC(C)(C)C4)s3)[nH]n2)cc(OC)c1` [Example 140, N-[5-[(3,5-dimethoxyphenyl)methoxy]-2H-pyrazol-3-yl]-5-(3,3-dimethylpiperazin-1-yl)thiophene-2-carboxamide], the figure is 0.98 nM; as for `C=CCN1CCCN(c2cnc(C(=O)Nc3cc(CCc4cc(OC)cc(OC)c4)n[nH]3)cn2)CC1` [Example 172, N-[5-[2-(3,5-dimethoxyphenyl)ethyl]-2H-pyrazol-3-yl]-5-(4-prop-2-enyl-1,4-diazepan-1-yl)pyrazine-2-carboxamide], 3.4 nM.
Regarding `COc1cc(CCc2cc(NC(=O)c3cnc(N4C[C@@H](C)N[C@@H](C)C4)cn3)[nH]n2)cc(OC)c1` [Example 112, N-[5-[2-(3,5-dimethoxyphenyl)ethyl]-2H-pyrazol-3-yl]-5-[(3R,5S)-3,5-dimethylpiperazin-1-yl]pyrazine-2-carboxamide], it took 1.7 nM to reach half-maximal inhibition (IC50).
`COc1cc(COc2cc(NC(=O)c3cnc(N4CCN5CCCC5C4)nc3)[nH]n2)cc(OC)c1` (stereo not drawn) [Example 134, 2-(3,4,6,7,8,8a-hexahydro-1H-pyrrolo[2,1-c]pyrazin-2-yl)-N-[5-[(3,5-dimethoxyphenyl)methoxy]-2H-pyrazol-3-yl]pyrimidine-5-carboxamide] displayed an IC50 of 2.4 nM. This IC50 and that of the compound before are within 1.5-fold of each other.
As for `COc1cc(COc2cc(NC(=O)c3ccc(N4CCN5CCCCC5C4)cc3)[nH]n2)cc(OC)c1` (stereo not drawn) [Example 98, 4-(1,3,4,6,7,8,9,9a-octahydropyrido[2,1-c]pyrazin-2-yl)-N-[5-[(3,5-dimethoxyphenyl)methoxy]-2H-pyrazol-3-yl]benzamide], the figure is 3 nM.
